Assay results reported in ChEMBL document CHEMBL1201862, “PubChem BioAssay data set” (2004).
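Cultured in 96-well plates, cells were exposed to test compound for 48 hours across five concentrations. Abbreviation: GI50, concentration required for 50% inhibition of growth.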 Calls of active or inactive are those of the source. Rule as the data show it: active = GI50 up to about 1.1 µM and inactive = higher.

How the values were obtained:
Experiment in all cases: inhibition of tumour cell growth, NCI panel, 48 h
[1] = test system: SK-MEL-28
[2] = test system: EKVX
[3] = test system: SF-295
[4] = test system: A549
[5] = test system: OVCAR-5
[6] = test system: SF-539
[7] = test system: NCI-H522
[8] = test system: SR
[9] = test system: OVCAR-3
[10] = test system: UO-31
[11] = test system: SF-268
[12] = test system: SW-620
[13] = test system: OVCAR-4
[14] = test system: SK-MEL-5
[15] = test system: HCC 2998
[16] = test system: A498

SMILES	GI50 [1]	GI50 [2]	GI50 [3]	GI50 [4]	GI50 [5]	GI50 [6]	GI50 [7]	GI50 [8]	GI50 [9]	GI50 [10]	GI50 [11]	GI50 [12]	GI50 [13]	GI50 [14]	GI50 [15]	GI50 [16]
CC(C)(C)c1cc(C(=O)O)c(C(c2ccccc2)c2ccccc2C(=O)O)c(C(=O)O)c1 (stereo not given)	> 100 µM (inactive)	> 100 µM (inactive)	> 100 µM (inactive)	> 100 µM (inactive)	> 100 µM (inactive)	> 100 µM (inactive)	2.52 µM (inactive)	> 100 µM (inactive)	> 100 µM (inactive)	> 100 µM (inactive)	> 100 µM (inactive)	> 100 µM (inactive)	19.9 µM (inactive)	–	–	–
C[N+](C)(C)CC(=O)N/N=C(/Cc1cc(=O)oc2cc(O)ccc12)C(=O)Nc1ccc(Cl)cc1	> 100 µM (inactive)	> 100 µM (inactive)	> 100 µM (inactive)	> 100 µM (inactive)	> 100 µM (inactive)	> 100 µM (inactive)	> 100 µM (inactive)	> 100 µM (inactive)	> 100 µM (inactive)	> 100 µM (inactive)	> 100 µM (inactive)	> 100 µM (inactive)	> 100 µM (inactive)	> 100 µM (inactive)	> 100 µM (inactive)	> 100 µM (inactive)
COc1cccc(C=O)c1C(=O)c1cc(O)ccc1O	34.1 µM (inactive)	18.5 µM (inactive)	> 100 µM (inactive)	> 100 µM (inactive)	> 100 µM (inactive)	> 100 µM (inactive)	> 10 µM (inactive)	0.457 µM (active)	20.2 µM (inactive)	18.5 µM (inactive)	> 40 µM (inactive)	17.1 µM (inactive)	18.3 µM (inactive)	91.8 µM (inactive)	> 100 µM (inactive)	> 44.9 µM (inactive)
CN/N=C(\C)c1c(O)cc(C)oc1=O	> 100 µM (inactive)	> 100 µM (inactive)	> 100 µM (inactive)	> 100 µM (inactive)	–	> 100 µM (inactive)	> 100 µM (inactive)	> 100 µM (inactive)	–	> 100 µM (inactive)	> 100 µM (inactive)	> 100 µM (inactive)	> 100 µM (inactive)	–	> 100 µM (inactive)	> 100 µM (inactive)
CC12CC[C@H](O)C(C)(C)[C@H]1CC[C@](C)(O)C2COc1ccc2ccc(=O)oc2c1 (stereo not given in full)	> 100 µM (inactive)	> 100 µM (inactive)	> 100 µM (inactive)	81.7 µM (inactive)	–	> 100 µM (inactive)	> 100 µM (inactive)	> 100 µM (inactive)	> 100 µM (inactive)	> 100 µM (inactive)	> 100 µM (inactive)	> 100 µM (inactive)	> 100 µM (inactive)	–	> 100 µM (inactive)	> 100 µM (inactive)
O=C(/C=C\c1cccc2ccccc12)c1ccc(F)cc1	13.2 µM (inactive)	18.8 µM (inactive)	19.3 µM (inactive)	26.8 µM (inactive)	16.6 µM (inactive)	21.5 µM (inactive)	20.5 µM (inactive)	–	17.1 µM (inactive)	16.7 µM (inactive)	15 µM (inactive)	7.52 µM (inactive)	20.1 µM (inactive)	17.8 µM (inactive)	19.5 µM (inactive)	29.7 µM (inactive)
Cc1ccc2[nH]c(Sc3c([N+](=O)[O-])ncn3C)nc2c1	37.4 µM (inactive)	26.1 µM (inactive)	> 100 µM (inactive)	30.5 µM (inactive)	46.8 µM (inactive)	18.1 µM (inactive)	–	12.3 µM (inactive)	17.5 µM (inactive)	27.5 µM (inactive)	31.5 µM (inactive)	25.3 µM (inactive)	18.1 µM (inactive)	17.1 µM (inactive)	15.7 µM (inactive)	25.1 µM (inactive)
CCOC(=O)c1cc(/C=C/C(C)=C/C(=O)OC)n(C)c1C	–	> 100 µM (inactive)	> 100 µM (inactive)	> 100 µM (inactive)	> 100 µM (inactive)	77.8 µM (inactive)	76 µM (inactive)	–	58.3 µM (inactive)	> 100 µM (inactive)	52.4 µM (inactive)	> 100 µM (inactive)	60.7 µM (inactive)	52.1 µM (inactive)	92.5 µM (inactive)	> 100 µM (inactive)
CC1(C)O[C@@H](CC/C=C/CO)[C@H](CC/C=C/CO)O1	> 100 µM (inactive)	> 100 µM (inactive)	> 100 µM (inactive)	> 100 µM (inactive)	> 100 µM (inactive)	> 100 µM (inactive)	> 100 µM (inactive)	74.6 µM (inactive)	> 100 µM (inactive)	–	> 100 µM (inactive)	> 100 µM (inactive)	> 100 µM (inactive)	> 100 µM (inactive)	> 100 µM (inactive)	> 100 µM (inactive)
CC(=O)C=C1Nc2ccccc2N1	> 100 µM (inactive)	> 100 µM (inactive)	> 100 µM (inactive)	> 100 µM (inactive)	> 100 µM (inactive)	> 100 µM (inactive)	> 100 µM (inactive)	> 100 µM (inactive)	> 100 µM (inactive)	> 100 µM (inactive)	> 100 µM (inactive)	> 100 µM (inactive)	> 100 µM (inactive)	> 100 µM (inactive)	> 100 µM (inactive)	–
CC[N+](CC)(CC)Cc1cc2ccccc2n1C(=O)OC	> 100 µM (inactive)	–	> 100 µM (inactive)	> 100 µM (inactive)	> 100 µM (inactive)	> 100 µM (inactive)	> 100 µM (inactive)	> 100 µM (inactive)	70.6 µM (inactive)	> 100 µM (inactive)	> 100 µM (inactive)	> 100 µM (inactive)	> 100 µM (inactive)	> 100 µM (inactive)	> 100 µM (inactive)	–
CCOC(=O)C(=O)/C=C(\C)Nc1c(NC2OCC(OC(C)=O)C(OC(C)=O)C2OC(C)=O)nc(SC)[nH]c1=O (stereo not given)	> 100 µM (inactive)	> 100 µM (inactive)	> 100 µM (inactive)	> 100 µM (inactive)	> 100 µM (inactive)	–	> 100 µM (inactive)	> 100 µM (inactive)	> 100 µM (inactive)	> 100 µM (inactive)	> 100 µM (inactive)	> 100 µM (inactive)	> 100 µM (inactive)	> 100 µM (inactive)	> 100 µM (inactive)	> 100 µM (inactive)
CC(C)NCCNC(=O)c1ccccc1Nc1c(Cl)cccc1Cl	14.4 µM (inactive)	13.6 µM (inactive)	15.2 µM (inactive)	17.3 µM (inactive)	7.38 µM (inactive)	15.8 µM (inactive)	–	9.06 µM (inactive)	12.6 µM (inactive)	10.1 µM (inactive)	18.1 µM (inactive)	15.5 µM (inactive)	14.4 µM (inactive)	5.04 µM (inactive)	2.84 µM (inactive)	–
O=C(O)CCN(CCCN(CCC(=O)O)CCC(=O)O)CCC(=O)O	> 100 µM (inactive)	> 100 µM (inactive)	> 100 µM (inactive)	> 100 µM (inactive)	> 100 µM (inactive)	> 100 µM (inactive)	> 100 µM (inactive)	–	> 100 µM (inactive)	–	> 100 µM (inactive)	> 100 µM (inactive)	> 100 µM (inactive)	> 100 µM (inactive)	> 100 µM (inactive)	> 100 µM (inactive)
COC(=O)C(=O)C1(CCC(C)=O)c2ccccc2-c2c(C)ccc(C)c21 (stereo not given)	> 100 µM (inactive)	31.4 µM (inactive)	81.7 µM (inactive)	46.5 µM (inactive)	> 100 µM (inactive)	–	33.3 µM (inactive)	19.2 µM (inactive)	32 µM (inactive)	25.4 µM (inactive)	52.2 µM (inactive)	48.4 µM (inactive)	68.9 µM (inactive)	25.5 µM (inactive)	87.5 µM (inactive)	55.7 µM (inactive)
CC(C)N(C(=O)C12C3C4C1C1C2C3C41C(O)C(C)(C)C)C(C)C (stereo not given)	> 50 µM (inactive)	> 50 µM (inactive)	> 50 µM (inactive)	> 50 µM (inactive)	–	> 50 µM (inactive)	> 50 µM (inactive)	> 50 µM (inactive)	> 50 µM (inactive)	> 50 µM (inactive)	> 50 µM (inactive)	> 50 µM (inactive)	–	> 50 µM (inactive)	> 50 µM (inactive)	> 50 µM (inactive)
OCC1OC(NO)C(O)C(O)C1O (stereo not given)	> 100 µM (inactive)	–	> 100 µM (inactive)	> 100 µM (inactive)	> 100 µM (inactive)	> 100 µM (inactive)	> 100 µM (inactive)	> 100 µM (inactive)	> 100 µM (inactive)	–	> 100 µM (inactive)	> 100 µM (inactive)	> 100 µM (inactive)	> 100 µM (inactive)	> 100 µM (inactive)	> 100 µM (inactive)
CN(C(=O)C12C3C4C1C1C4(C(=O)C45C6C7C4C4C5C6C74C)C3C12C)C(C)(C)C (stereo not given)	> 100 µM (inactive)	> 100 µM (inactive)	> 100 µM (inactive)	52.7 µM (inactive)	88.1 µM (inactive)	> 100 µM (inactive)	48.6 µM (inactive)	29.2 µM (inactive)	–	38.5 µM (inactive)	> 100 µM (inactive)	> 100 µM (inactive)	–	31.6 µM (inactive)	91 µM (inactive)	55.3 µM (inactive)
Clc1ccc(C(c2ccc(Cl)cc2)c2ccccn2)cc1	> 10 µM (inactive)	23 µM (inactive)	19.1 µM (inactive)	18.5 µM (inactive)	14.9 µM (inactive)	18.7 µM (inactive)	21.4 µM (inactive)	20.8 µM (inactive)	> 10 µM (inactive)	16.5 µM (inactive)	23.5 µM (inactive)	20.1 µM (inactive)	27.4 µM (inactive)	17.1 µM (inactive)	15.9 µM (inactive)	–
